Laboratory results reported in ChEMBL document CHEMBL1201862, “PubChem BioAssay data set” (2004).
Active and inactive are the calls of the source.

Assays:
Vero [1] = experiment: cells; type: functional, cell-based; conditions: Chlorocebus sabaeus
Vero [2] = experiment: cells; type: functional; conditions: Chlorocebus sabaeus
Estrogen receptor beta = Estrogen receptor beta (Homo sapiens, UniProt Q92731);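 note: recombinant ER-beta bound to coactivator SRC1 peptide in presence of estradiol agonist; inhibitors block coactivator peptide binding and lower the FRET signal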
Cytochrome P450 3A4 [3] = target: T1, Cytochrome P450 3A4 (Homo sapiens, UniProt P08684);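 note: CYP3A4 tested as one member of a cytochrome P450 panel screen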
[4] = target: T2, Carboxy-terminal domain RNA polymerase II polypeptide A small phosphatase 1 (Homo sapiens, UniProt Q9GZU7); experiment: inhibitors of CTDSP1, concentration-response testing, biochemical assay, absorbance-based, actives from ultra-high-throughput screening (AID 540297); type: functional
T2 sequence (Q9GZU7 whole entry): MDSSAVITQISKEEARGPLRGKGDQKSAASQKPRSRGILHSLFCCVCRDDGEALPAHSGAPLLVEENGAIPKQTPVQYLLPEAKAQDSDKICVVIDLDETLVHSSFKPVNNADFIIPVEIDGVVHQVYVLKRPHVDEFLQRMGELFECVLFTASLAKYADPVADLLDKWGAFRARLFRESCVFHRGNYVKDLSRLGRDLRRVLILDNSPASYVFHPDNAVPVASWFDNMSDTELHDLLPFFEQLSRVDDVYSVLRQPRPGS

[5] = target: T3, High affinity choline transporter 1 (Homo sapiens, UniProt Q9GZV3); experiment: CHT inhibitors, dose response, cell-based, 5-point CRC, membrane potential dye (AID 504840); type: functional
T3 sequence (Q9GZV3 whole entry): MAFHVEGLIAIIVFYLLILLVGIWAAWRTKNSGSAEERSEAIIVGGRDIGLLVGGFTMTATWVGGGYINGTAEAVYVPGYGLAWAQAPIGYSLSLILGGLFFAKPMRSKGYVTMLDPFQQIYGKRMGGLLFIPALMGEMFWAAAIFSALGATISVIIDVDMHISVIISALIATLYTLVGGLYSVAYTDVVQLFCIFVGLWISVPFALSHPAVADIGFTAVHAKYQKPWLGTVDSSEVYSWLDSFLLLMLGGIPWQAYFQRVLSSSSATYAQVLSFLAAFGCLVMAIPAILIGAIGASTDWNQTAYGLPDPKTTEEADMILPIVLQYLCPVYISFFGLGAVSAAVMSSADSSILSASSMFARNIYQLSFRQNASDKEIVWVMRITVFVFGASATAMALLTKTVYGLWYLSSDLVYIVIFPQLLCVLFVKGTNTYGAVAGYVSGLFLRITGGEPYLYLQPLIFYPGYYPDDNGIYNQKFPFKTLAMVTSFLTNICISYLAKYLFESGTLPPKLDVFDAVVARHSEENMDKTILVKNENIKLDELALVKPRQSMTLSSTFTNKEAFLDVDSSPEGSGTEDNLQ

[6] = inhibitors of HIV Env-driven cell fusion, dose response, cherry-pick (AID 652057); type: functional, cell-based
[7] = ZM109 Env clade C HIV-1 fusion inhibitors, dose response, HeLa effector, CEM target cells, luciferase, cherry-pick (AID 652058); type: functional, cell-based
[8] = inhibitors of clade B AD8 Env fusion, dose response, cell-based, cherry-pick (AID 652062); type: functional;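 note: luciferase signal from cell-cell fusion driven by HIV-1 clade B AD8 Env; potency is for inhibitors of fusion seen as a drop in luminescence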
[9] = HEp-2 cell cytotoxicity, dose response, cytotoxicity control for RSV inhibitor project, HTS (AID 2410); type: functional; conditions: human respiratory syncytial virus
[10] = A549 cell cytotoxicity, dose response, cytotoxicity control, plate reader, cherry-pick, antagonist series (AID 743412); type: functional, cell-based
[11] = LGR2 antagonists, dose response, cell-based, HEK293, CRE-luciferase reporter, cherry pick, set 2 (AID 743343); type: functional;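 note: transfected cells were stimulated with diluted bursicon conditioned medium after compound addition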
[12] = MC4R antagonists, dose response, counter-screen for LGR2 antagonist project, cell-based, plate reader, cherry pick (AID 743444); type: functional;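 note: transfected HEK 293 cells stimulated with alpha-MSH peptide; potency of inhibitors of the alpha-MSH evoked signal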
Cytochrome P450 2C19 = Cytochrome P450 2C19 (Homo sapiens, UniProt P33261); experiment: Cytochrome panel assay with activity outcomes. Panel member name: p450-cyp2c19 Compounds with AC50 equal or less than 10 uM are considered active; type: functional; conditions: read-out: AC50
Paired box protein Pax-8 = Paired box protein Pax-8 (Homo sapiens, UniProt Q06710); experiment: inhibitors of PAX8-driven TPO luciferase reporter, dose response, RMG-I cells, cherry-pick (AID 687027); type: functional, cell-based;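 note: luciferase reporter driven by Pax8 target thyroperoxidase promoter measured by SteadyGlo luminescence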
[13] = cytotoxicity in OVCAR8 ovarian cancer cells, dose response, PAX8 project, cell-based, plate reader, dry powder samples (AID 743197); type: functional; conditions: OVCAR-8
[14] = target: Eukaryotic translation initiation factor 4E (Mus musculus, UniProt P63073); experiment: eIF4E–eIF4G protein interaction inhibitors, dose response, biochemical, TR-FRET (AID 855); type: functional;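 note: potency for disrupting eIF4E binding to eIF4GI seen as loss of FRET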
Cytochrome P450 1A2 = target: T4, Cytochrome P450 1A2 (Homo sapiens, UniProt P05177);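 note: PubChem cytochrome P450 panel assay, CYP1A2 panel member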
T4 sequence (P05177 whole entry): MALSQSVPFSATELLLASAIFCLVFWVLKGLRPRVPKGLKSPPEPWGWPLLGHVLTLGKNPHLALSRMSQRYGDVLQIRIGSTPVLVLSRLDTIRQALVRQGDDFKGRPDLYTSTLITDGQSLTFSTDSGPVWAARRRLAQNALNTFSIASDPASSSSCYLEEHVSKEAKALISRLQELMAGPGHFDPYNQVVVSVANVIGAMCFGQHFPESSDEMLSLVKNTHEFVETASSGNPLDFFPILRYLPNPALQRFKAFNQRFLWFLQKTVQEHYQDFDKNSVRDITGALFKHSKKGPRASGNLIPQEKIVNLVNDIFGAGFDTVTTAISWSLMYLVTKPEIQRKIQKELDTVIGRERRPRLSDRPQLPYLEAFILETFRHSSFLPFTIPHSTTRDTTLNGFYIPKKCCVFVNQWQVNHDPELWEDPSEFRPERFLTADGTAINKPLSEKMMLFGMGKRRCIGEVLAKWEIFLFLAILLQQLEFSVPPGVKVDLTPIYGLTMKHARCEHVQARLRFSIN

Cytochrome P450 3A4 [15] = target: T1, Cytochrome P450 3A4; remark: listed apart in the source
Cytochrome P450 2C9 = Cytochrome P450 2C9 (Homo sapiens, UniProt P11712)
[16] = target: T5, Voltage-gated N-type calcium channel alpha-1B subunit/Amyloid beta A4 precursor protein-binding family A member 1 (Homo sapiens, UniProt Q00975+Q02410); type: protein assay
[17] = target: T5, Voltage-gated N-type calcium channel alpha-1B subunit/Amyloid beta A4 precursor protein-binding family A member 1; type: protein assay; remark: listed apart in the source

T1 sequence (P08684 whole entry, the tested form may be a part): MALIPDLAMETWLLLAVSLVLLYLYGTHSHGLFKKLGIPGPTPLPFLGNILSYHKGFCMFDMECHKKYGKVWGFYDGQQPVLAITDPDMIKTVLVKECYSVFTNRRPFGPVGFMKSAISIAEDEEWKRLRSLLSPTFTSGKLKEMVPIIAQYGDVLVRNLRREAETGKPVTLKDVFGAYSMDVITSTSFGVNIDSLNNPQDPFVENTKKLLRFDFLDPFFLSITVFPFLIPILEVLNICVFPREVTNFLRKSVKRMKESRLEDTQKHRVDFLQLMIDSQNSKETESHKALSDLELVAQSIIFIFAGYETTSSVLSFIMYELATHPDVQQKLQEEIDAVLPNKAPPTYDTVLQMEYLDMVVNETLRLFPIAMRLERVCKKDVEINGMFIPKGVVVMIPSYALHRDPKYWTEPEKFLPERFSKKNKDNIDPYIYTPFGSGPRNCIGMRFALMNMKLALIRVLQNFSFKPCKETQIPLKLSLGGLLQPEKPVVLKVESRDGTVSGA
Chain of Estrogen receptor beta (Q92731 whole entry): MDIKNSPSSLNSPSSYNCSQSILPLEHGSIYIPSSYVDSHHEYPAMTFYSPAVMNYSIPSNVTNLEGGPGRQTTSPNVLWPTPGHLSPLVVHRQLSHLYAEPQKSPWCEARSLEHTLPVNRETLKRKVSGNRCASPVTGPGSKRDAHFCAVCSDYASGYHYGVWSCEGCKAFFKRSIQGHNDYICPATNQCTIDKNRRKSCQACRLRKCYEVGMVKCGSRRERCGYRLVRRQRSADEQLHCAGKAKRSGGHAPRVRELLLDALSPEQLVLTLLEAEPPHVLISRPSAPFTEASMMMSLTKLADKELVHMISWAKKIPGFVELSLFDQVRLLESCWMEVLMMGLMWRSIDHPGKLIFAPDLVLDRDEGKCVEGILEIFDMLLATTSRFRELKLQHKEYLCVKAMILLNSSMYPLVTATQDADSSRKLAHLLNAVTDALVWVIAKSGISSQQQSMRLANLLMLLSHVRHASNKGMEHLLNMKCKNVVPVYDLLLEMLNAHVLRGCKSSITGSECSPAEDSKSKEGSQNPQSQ
Chain of Eukaryotic translation initiation factor 4E (P63073 whole entry): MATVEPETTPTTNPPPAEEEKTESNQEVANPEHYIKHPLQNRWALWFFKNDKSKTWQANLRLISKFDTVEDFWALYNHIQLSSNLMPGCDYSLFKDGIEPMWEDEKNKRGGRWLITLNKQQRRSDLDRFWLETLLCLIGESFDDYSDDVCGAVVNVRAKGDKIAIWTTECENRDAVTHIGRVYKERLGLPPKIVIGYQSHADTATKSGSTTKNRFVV
T5 sequence (Q00975 whole entry): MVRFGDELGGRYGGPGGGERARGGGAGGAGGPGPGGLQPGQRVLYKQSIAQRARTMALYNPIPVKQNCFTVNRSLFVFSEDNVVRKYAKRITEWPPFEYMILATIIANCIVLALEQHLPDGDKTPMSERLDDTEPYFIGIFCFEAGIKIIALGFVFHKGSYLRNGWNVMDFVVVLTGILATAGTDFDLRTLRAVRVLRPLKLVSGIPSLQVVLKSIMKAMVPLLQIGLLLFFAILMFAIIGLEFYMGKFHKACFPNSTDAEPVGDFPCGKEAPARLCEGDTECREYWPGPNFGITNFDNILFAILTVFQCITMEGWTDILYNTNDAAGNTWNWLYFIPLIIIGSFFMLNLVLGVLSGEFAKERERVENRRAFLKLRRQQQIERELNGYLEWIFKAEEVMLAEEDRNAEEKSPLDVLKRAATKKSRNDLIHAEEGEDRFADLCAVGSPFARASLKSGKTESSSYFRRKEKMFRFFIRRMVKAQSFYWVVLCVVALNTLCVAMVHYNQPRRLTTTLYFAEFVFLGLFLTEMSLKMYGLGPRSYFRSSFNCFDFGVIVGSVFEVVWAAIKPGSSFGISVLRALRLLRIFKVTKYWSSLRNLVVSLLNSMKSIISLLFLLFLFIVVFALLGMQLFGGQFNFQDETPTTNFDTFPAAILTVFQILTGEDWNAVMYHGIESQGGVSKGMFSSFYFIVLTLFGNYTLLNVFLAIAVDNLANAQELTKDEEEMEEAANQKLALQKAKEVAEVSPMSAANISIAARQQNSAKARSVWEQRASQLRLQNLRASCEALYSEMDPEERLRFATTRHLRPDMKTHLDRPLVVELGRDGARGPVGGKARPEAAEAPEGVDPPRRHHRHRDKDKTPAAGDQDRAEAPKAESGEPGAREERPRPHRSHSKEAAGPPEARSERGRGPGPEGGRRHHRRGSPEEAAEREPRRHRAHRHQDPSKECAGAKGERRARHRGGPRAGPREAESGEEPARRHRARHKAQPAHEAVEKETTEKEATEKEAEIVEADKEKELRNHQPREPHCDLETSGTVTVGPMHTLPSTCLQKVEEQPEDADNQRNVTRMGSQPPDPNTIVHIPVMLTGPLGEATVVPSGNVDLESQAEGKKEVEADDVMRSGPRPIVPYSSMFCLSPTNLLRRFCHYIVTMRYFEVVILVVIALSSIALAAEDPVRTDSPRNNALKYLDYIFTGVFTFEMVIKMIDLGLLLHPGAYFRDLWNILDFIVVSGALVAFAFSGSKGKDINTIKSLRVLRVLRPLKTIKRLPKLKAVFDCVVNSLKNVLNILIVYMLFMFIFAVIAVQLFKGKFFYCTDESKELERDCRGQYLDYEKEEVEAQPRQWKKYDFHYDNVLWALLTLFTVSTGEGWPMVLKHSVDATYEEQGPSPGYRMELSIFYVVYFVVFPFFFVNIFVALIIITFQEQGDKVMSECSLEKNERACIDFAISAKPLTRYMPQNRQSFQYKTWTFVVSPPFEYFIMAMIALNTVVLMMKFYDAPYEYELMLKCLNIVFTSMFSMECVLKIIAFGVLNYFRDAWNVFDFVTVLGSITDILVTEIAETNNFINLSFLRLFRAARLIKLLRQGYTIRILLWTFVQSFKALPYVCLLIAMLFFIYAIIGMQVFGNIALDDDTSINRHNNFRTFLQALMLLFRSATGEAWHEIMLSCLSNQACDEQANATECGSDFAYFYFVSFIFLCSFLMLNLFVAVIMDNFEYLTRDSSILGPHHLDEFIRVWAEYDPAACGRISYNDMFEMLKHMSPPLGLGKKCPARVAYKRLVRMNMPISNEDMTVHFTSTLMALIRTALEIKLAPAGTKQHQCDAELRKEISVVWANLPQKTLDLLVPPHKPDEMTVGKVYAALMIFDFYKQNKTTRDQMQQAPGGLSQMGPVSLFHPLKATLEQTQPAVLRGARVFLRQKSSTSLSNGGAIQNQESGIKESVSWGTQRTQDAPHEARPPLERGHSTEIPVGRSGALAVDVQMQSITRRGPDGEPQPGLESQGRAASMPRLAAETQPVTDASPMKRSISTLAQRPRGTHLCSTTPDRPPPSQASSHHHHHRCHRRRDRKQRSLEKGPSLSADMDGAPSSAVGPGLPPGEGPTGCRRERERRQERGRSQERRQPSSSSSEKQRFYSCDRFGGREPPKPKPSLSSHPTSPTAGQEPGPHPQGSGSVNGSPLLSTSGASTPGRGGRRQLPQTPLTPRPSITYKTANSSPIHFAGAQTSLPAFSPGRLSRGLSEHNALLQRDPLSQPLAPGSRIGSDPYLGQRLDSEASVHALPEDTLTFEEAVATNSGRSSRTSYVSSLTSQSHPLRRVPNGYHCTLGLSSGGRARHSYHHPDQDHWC
T5 sequence (Q02410 whole entry): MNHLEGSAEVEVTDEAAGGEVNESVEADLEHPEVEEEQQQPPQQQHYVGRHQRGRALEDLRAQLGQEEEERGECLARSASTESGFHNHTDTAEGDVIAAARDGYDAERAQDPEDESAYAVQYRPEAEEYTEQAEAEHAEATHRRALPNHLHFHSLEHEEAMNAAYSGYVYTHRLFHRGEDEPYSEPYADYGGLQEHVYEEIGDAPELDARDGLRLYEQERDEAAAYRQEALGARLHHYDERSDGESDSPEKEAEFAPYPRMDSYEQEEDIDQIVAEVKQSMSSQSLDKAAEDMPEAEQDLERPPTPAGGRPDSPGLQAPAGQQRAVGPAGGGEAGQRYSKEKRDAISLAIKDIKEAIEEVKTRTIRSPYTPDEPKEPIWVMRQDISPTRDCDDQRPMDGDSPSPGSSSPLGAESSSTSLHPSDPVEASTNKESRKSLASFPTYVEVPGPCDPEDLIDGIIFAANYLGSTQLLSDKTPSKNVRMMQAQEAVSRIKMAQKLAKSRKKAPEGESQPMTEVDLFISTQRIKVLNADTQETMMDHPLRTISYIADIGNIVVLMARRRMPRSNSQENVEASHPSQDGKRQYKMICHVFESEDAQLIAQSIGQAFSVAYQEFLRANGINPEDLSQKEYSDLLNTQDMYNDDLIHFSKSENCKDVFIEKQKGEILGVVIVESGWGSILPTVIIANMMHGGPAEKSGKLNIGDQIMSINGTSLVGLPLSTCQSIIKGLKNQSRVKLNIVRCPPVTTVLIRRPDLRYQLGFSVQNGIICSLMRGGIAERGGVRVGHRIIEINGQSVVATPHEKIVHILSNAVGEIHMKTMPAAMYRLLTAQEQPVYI
Chain of Paired box protein Pax-8 (Q06710 whole entry): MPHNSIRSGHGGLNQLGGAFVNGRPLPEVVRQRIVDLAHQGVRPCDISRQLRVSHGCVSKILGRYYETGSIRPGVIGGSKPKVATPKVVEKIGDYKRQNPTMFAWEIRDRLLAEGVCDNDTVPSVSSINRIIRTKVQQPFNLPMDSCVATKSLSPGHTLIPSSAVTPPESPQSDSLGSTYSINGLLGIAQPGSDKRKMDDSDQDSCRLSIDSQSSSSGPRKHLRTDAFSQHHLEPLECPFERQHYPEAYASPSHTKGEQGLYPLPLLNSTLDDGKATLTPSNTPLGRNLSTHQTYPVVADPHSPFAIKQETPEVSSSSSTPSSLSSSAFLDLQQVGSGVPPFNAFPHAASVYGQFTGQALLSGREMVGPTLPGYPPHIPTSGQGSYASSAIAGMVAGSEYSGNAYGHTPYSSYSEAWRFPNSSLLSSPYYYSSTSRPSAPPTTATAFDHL

Which IC50 (Vero [1]) does the source give for `CN1CCN(c2ccc3sc(-n4ccc5ccccc54)nc3c2)CC1` here?
Its IC50 is 22.7 µM (active).

What about the CC50 (Vero [2]) of the same molecule?
The CC50 was > 25 µM (active).

Which IC50 (Estrogen receptor beta) does the source give for `COc1ccc(-c2cn3ccsc3n2)cc1` here?
Its IC50 is > 50 µM (not active).

For `Cc1cc2ccccn2c1C(=O)c1ccc(Cl)cc1`, which AC50 (Cytochrome P450 3A4 [3]) is on record?
The AC50 was “inconclusive”.

Which IC50 [4] does the source give for `Cc1cccn2c(=O)c3cc(C#N)/c(=N\C(=O)c4ccco4)n(Cc4ccco4)c3nc12` here?
Its IC50 is > 80 µM (inactive).

With `O=C(C[n+]1cccc(Br)c1)c1cccs1` as the molecule, how does the IC50 [5] read?
The IC50 was 13.2 µM (active).

For `CO[C@@H]1CN(C)C(=O)c2cc(NS(=O)(=O)c3cn(C)cn3)ccc2OC[C@@H](C)N(Cc2ccc(C(F)(F)F)cc2)C[C@H]1C`, which AC50 [6] is on record?
The AC50 was 2.32 µM (active).

And the AC50 [7]?
The AC50 was 1.91 µM (active).

What about the AC50 [8] of the same molecule?
Its AC50 is 4.85 µM (active).

With `COc1cc2c(cc1NC(=O)c1ccc(C(C)(C)C)cc1)CCCC2` as the molecule, how does the CC50 [9] read?
The CC50 was 18.2 µM (active).

What about the IC50 (Vero [1]) of the same molecule?
The IC50 was 8.78 µM (active).

Which results are given for `CC(C)CCn1cnc2c(oc3nc4c(cc32)CCCC4)c1=O`?
AC50 [10]: > 52 µM (inactive); AC50 [11]: 4.92 µM (active); AC50 [12]: 3.8 µM (active)

With `O=C(O)c1cccnc1C(=O)O` [QUINOLINIC ACID] as the molecule, how does the AC50 (Cytochrome P450 3A4 [3]) read?
Its AC50 is “inconclusive”.

Which results are given for `C[C@](O)(c1ccccc1)c1nccc2ccccc12`?
AC50 (Cytochrome P450 2C19): 3.98 µM (inconclusive); AC50 (Cytochrome P450 3A4 [3]): inconclusive

For `CC(=O)c1ccccc1NS(=O)(=O)c1cccc2nsnc12`, which IC50 [4] is on record?
The IC50 was 4.66 µM (active).

With `Cc1ccc(S(=O)(=O)N(C)C[C@@H]2OCCCC[C@@H](C)Oc3ccc(NS(=O)(=O)c4ccc(Cl)cc4)cc3C(=O)N([C@H](C)CO)C[C@H]2C)cc1` as the molecule, how does the AC50 (Paired box protein Pax-8) read?
The AC50 was 4.4 µM (active).

What about the AC50 [13] of the same molecule?
The AC50 was > 70 µM (inactive).

For `CC1CCC(C(C)C)C(OC(=O)COC(=O)c2ccc(N)cc2)C1` (stereo unspecified), which IC50 [14] is on record?
Its IC50 is > 64 µM (inactive).

With `O=C(CSc1nnc(-c2ccco2)n1Cc1ccco1)NCc1cccs1` as the molecule, how does the IC50 [5] read?
The IC50 was 9.55 µM (active).

With `C=CCSc1nc2ccccc2n1Cc1nnc(-c2cccs2)o1` as the molecule, how does the IC50 [5] read?
Its IC50 is 0.457 µM (active).

Which IC50 [14] does the source give for `Cc1oc(-c2ccc(Cl)cc2)nc1CN1CCC(C(=O)NCc2ccco2)CC1` here?
Its IC50 is > 64 µM (inactive).

With `CC(Oc1ccccc1F)C(=O)Nc1ccc2ccccc2c1` (stereo unspecified) as the molecule, how does the IC50 (Vero [1]) read?
Its IC50 is > 6.25 µM (active).

For `COc1ccccc1NC(=O)c1ccc(S(=O)(=O)N(C)C)cc1`, which IC50 [14] is on record?
Its IC50 is > 64 µM (inactive).

For `Cc1ccc(-n2nc(C)c(/C=N/n3c(C)nc4ccccc4c3=O)c2O)cc1`, which IC50 (Estrogen receptor beta) is on record?
Its IC50 is > 50 µM (not active).

Which results are given for `CC(C)n1cnc2c(C(=O)N[C@H]3CN4CCC3CC4)cc(Cl)cc21`?
AC50 (Cytochrome P450 1A2): 39.8 µM (inconclusive); AC50 (Cytochrome P450 3A4 [3]): inconclusive

With `N#Cc1ccc(C2=NC(C(F)(F)F)(C(F)(F)F)c3c(n(Cc4ccco4)c(=O)[nH]c3=O)N2)cc1` as the molecule, how does the AC50 (Cytochrome P450 3A4 [3]) read?
Its AC50 is “inconclusive”.

What does the source list for `O=C(CCNS(=O)(=O)c1cccs1)N1CCCCCC1`?
IC50 [14]: > 64 µM (inactive); AC50 (Cytochrome P450 3A4 [15]): 20 µM (inconclusive); AC50 (Cytochrome P450 2C9): 28.2 µM (inconclusive)

Which IC50 (Estrogen receptor beta) does the source give for `CC1CCCC(C)N1C(=O)Nc1cccc(Cl)c1` (stereo unspecified) here?
The IC50 was > 50 µM (not active).

What does the source list for `Cc1cc(C(=O)O)ccc1-c1ccc(/C=C2\SC(=O)N(CC(=O)Nc3ccc4c(c3)OCO4)C2=O)o1`?
IC50 [16]: 17.5 µM (active); IC50 [17]: > 50 µM (inactive)
